Our source for the IC50 values is patent US6949571B2, “1,2-dihydropyridine compounds, process for preparation of the same and use thereof” (Eisai Co., Ltd., priority 2000, dated 2005).

Read-outs that look alike come from different tables or passages of the source.

In this experiment the test system is AMPA receptor.
The mark [1] stands for this setting: Table 1, primary culture of rat embryo cerebral cortex nerve cells, 2 μM AMPA, 1 μM MK-801.
Where [2] appears, read: Table 2, suppression of AMPA-induced calcium influx into nerve cells.
Setting [3] is: Table 3, primary culture of rat embryo cerebral cortex nerve cells, 2 μM AMPA, 1 μM MK-801.
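Further: primary rat embryonic cortical neurons grown on an astrocyte layer in 96-well plates, used after at least 8 to 10 days in culture, Fura2-AM fluorescence ratio at 340/380 nm excitation.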

Procedure: Cerebral cortex was cut out from the brain of rat of gestational 18 days and treated with trypsin and DNase to disperse the cells. The cells were flown by MEM containing 10% of serum, sown in a culture bottle and astrocytes were proliferated. The astrocytes were re-dispersed by trypsin and sown in a 96-well plate. After incubation for one week, it was confirmed that the astrocytes covered all over the bottom and then the nerve cells of cerebral cortex which was dispersed by the above method were sown thereupon. After incubation for 24 hours, the medium was changed, the incubation was carried out for one week and, after that, the medium was changed to that containing 1 μM of MK-801. Nerve cells which were incubated for not shorter than 8 to 10 days were used.
Calcium influx into the cells was measured using Fura2-AM which was a calcium-sensitive fluorescent dye. It was treated in a medium containing Fura2-AM for 1 hour, incorporated into the cells, exchanged to a Tyrode solution containing 1 μM MK-801 and stimulation was carried out using 2 μM AMPA. Change in the amount of calcium flown into the cells were measured as the change in the fluorescent intensity at the exciting wave length of 340/380 nm.

As a reminder, the IC50 is the midpoint of a concentration-inhibition curve. Under setting [1], `CC(=O)OCc1cccc(-n2cc(-c3ccccn3)cc(-c3ccccc3C#N)c2=O)c1` [Example 25, 3-(2-Cyanophenyl)-5-(2-pyridyl)-1-(3-acetoxymethylphenyl)-1,2-dihydropyridin-2-one] returned an IC50 of 30 nM.

For `O=c1c(-c2ccc(N3CCCC3)nc2)cc(-c2ccccn2)cn1-c1ccccc1` [Example 285, 3-(2-Pyrrolidinopyridin-5-yl)-5-(2-pyridyl)-1-phenyl-1,2-dihydropyridin-2-one], the IC50 under setting [2] was 7200 nM. For `O=c1c(-c2ccccc2)cc(-c2ccccc2)cn1-c1ccccn1` [Example 37, 3,5-Diphenyl-1-(2-pyridyl)-1,2-dihydropyridin-2-one], under setting [1], half-maximal inhibition (IC50) required 700 nM.

As to `N#Cc1ncccc1-c1cc(-c2ccccn2)cn(-c2cccnc2)c1=O` [Example 294, 3-(2-Cyanopyridin-3-yl)-5-(2-pyridyl)-1-(3-pyridyl)-1,2-dihydropyridin-2-one], the half-inhibitory concentration (IC50) under setting [2] amounted to 600 nM. In turn, `O=c1c(-c2ccc(F)cc2)cc(-c2ccccn2)cn1-c1ccccc1` [Example 73, 3-(4-Fluorophenyl)-5-(2-pyridyl)-1-phenyl-1,2-dihydropyridin-2-one] yielded a half-maximal inhibitory concentration (IC50) under setting [1] of 1200 nM. Still for that read-out and setting: with `N#Cc1ccccc1-c1cc(-c2ccccc2)cn(-c2ccccn2)c1=O` [Example 39, 3-(2-Cyanophenyl)-5-phenyl-1-(2-pyridyl)-1,2-dihydropyridin-2-one] the figure was 300 nM.

For the molecule `COc1cccc(-n2cc(-c3ccccn3)cc(-c3cccnc3F)c2=O)c1` [Example 80, 3-(2-Fluoro-3-pyridyl)-5-(2-pyridyl)-1-(3-methoxyphenyl)-1,2-dihydropyridin-2-one], half-maximal inhibition under setting [1] (IC50) was put at 300 nM. Same read-out and setting: the value for `Cc1ccc(-n2cc(-c3ccccn3)cc(-c3ccccc3C#N)c2=O)cc1` [Example 107, 3-(2-Cyanophenyl)-5-(2-pyridyl)-1-(4-tolyl)-1,2-dihydropyridin-2-one] was 70 nM. As for `N#Cc1ccccc1-c1cc(-c2ccccn2)cn(C2CCCC2)c1=O` [Example 171, 3-(2-Cyanophenyl)-1-cyclopentyl-5-(2-pyridyl)-1,2-dihydropyridin-2-one], under setting [2], the half-inhibitory concentration (IC50) was 2300 nM.

Turning to `O=c1c(-c2ccsc2)cc(-c2ccccn2)cn1-c1cccnc1` [Example 133, 3-(Thiophen-3-yl)-5-(2-pyridyl)-1-(3-pyridyl)-1,2-dihydropyridin-2-one], the IC50 under setting [1] turned out to be 300 nM.

As to `N#Cc1ccccc1-c1cc(-c2cccc(Br)n2)cn(-c2ccccc2)c1=O` [Example 300, 5-(2-Bromopyridin-6-yl)-3-(2-cyanophenyl)-1-phenyl-1,2-dihydropyridin-2-one], the IC50 under setting [2] came out at 300 nM. The same measure, in the same setting: with `CCN(CC)Cc1cccc(-c2cc(-c3ccccc3C#N)c(=O)n(-c3ccccc3)c2)n1` [Example 157, 3-(2-Cyanophenyl)-5-(6-diethylaminomethyl-2-pyridyl)-1-phenyl-1,2-dihydropyridin-2-one] the figure was 500 nM.

Molecule `COc1cccc(-n2cc(-c3ccccn3)cc(-c3ccccc3Cl)c2=O)c1` [Example 74, 3-(2-Chlorophenyl)-5-(2-pyridyl)-1-(3-methoxyphenyl)-1,2-dihydropyridin-2-one] displayed an IC50 under setting [1] of 200 nM. For `CS(=O)(=O)Nc1ccc(-c2cc(-c3ccccn3)cn(-c3ccccc3)c2=O)cc1` [Example 227, 3-[4-(Methanesulfonylamino)phenyl]-1-phenyl-5-(2-pyridyl)-1,2-dihydropyridin-2-one], the IC50 under setting [2] stood at 1800 nM. Turning to `N#Cc1ccccc1-c1cc(-c2nc3cnccc3[nH]2)cn(-c2ccccc2)c1=O` [Example 362, 3-(2-Cyanophenyl)-5-(1H-imidazo[4,5-c]pyridin-2-yl)-1-phenyl-1,2-dihydropyridin-2-one], inhibition under setting [3] was half-maximal at 3700 nM (IC50).

`CC1=NN=C(c2ccc(N)cc2)c2cc3c(cc2C1)OCO3` [GYKI 52466, reference compound] showed an IC50 (control compound, same test, 2 μM AMPA) of 9020 nM. `N#Cc1ccccc1-c1cc(-c2ccsc2C=O)cn(-c2ccccc2)c1=O` [Example 28, 3-(2-Cyanophenyl)-5-(2-formylthiophen-3-yl)-1-phenyl-1,2-dihydropyridin-2-one] registered an IC50 under setting [1] of 200 nM. Same read-out and setting: with `CCc1ccc(-n2cc(-c3ccccn3)cc(-c3ccccc3C#N)c2=O)cn1` [Example 124, 3-(2-Cyanophenyl)-5-(2-pyridyl)-1-(2-ethylpyridine-5-yl)-1,2-dihydropyridin-2-one] the figure was 700 nM. Turning to `N#CCc1ccc(-n2cc(-c3ccccn3)cc(-c3ccccc3C#N)c2=O)cc1` [Example 150, 3-(2-Cyanophenyl)-5-(2-pyridyl)-1-(4-cyanomethylphenyl)-1,2-dihydropyridin-2-one], under setting [2], the IC50 stood at 300 nM. On the same count and under the same terms, with `O=c1c(-c2nccs2)cc(-c2ccccn2)cn1-c1ccccc1` [Example 255, 1-Phenyl-5-(2-pyridyl)-3-(2-thiazoyl)-1,2-dihydropyridin-2-one] the figure was 500 nM. As for `N#Cc1ccccc1-c1cc(-c2ccccn2)cn(C2CCCN(Cc3ccccc3)C2)c1=O` (stereo not shown) [Example 379-B, 3-(2-Cyanophenyl)-5-(2-pyridyl)-1-(N-benzylpiperidin-3-yl)-1,2-dihydropyridin-2-one], under setting [3], the midpoint of inhibition, the IC50, lay at 6400 nM. For the molecule `CC(=O)c1ccccc1-c1cc(-c2ccccn2)cn(-c2ccccc2)c1=O` [Example 272, 3-(2-Acetylphenyl)-5-(2-pyridyl)-1-phenyl-1,2-dihydropyridin-2-one], under setting [2], the IC50 came out at 3300 nM.

With `O=c1c(-c2ccccc2O)cc(-c2ccccn2)cn1-c1ccc(F)cc1` [Example 142, 3-(2-Hydroxyphenyl)-5-(2-pyridyl)-1-(4-fluorophenyl)-1,2-dihydropyridin-2-one], the IC50 under setting [2] turned out to be 2200 nM. For `O=c1c(-c2ccccc2)cc(-c2ccccn2)cn1-c1ccc(F)cc1` [Example 98, 3-Phenyl-5-(2-pyridyl)-1-(4-fluorophenyl)-1,2-dihydropyridin-2-one], the IC50 under setting [1] turned out to be 600 nM.

Molecule `Cc1ccc2[nH]c(-c3cc(-c4ccccc4C#N)c(=O)n(-c4ccccc4)c3)nc2c1` [Example 351, 3-(2-Cyanophenyl)-5-(5-methyl-1H-benzimidazol-2-yl)-1-phenyl-1,2-dihydropyridin-2-one] displayed an IC50 under setting [3] of 3300 nM. Same read-out and setting: with `N#Cc1ccccc1-c1cc(-c2ccccn2)cn(CC2CCN(C(=O)OCc3ccccc3)CC2)c1=O` [Example 319, 1-[1-(Benzyloxycarbonyl)piperidin-4-yl]methyl-3-(2-cyanophenyl)-5-(2-pyridyl)-1,2-dihydropyridin-2-one] the figure was 2000 nM. As to `COc1ccccc1-c1cc(-c2ccccc2C#N)c(=O)n(-c2cccnc2)c1` [Example 52, 3-(2-Cyanophenyl)-5-(2-methoxyphenyl)-1-(3-pyridyl)-1,2-dihydropyridin-2-one], half-maximal inhibition under setting [1] (IC50) required 1100 nM. Turning to `N#Cc1ccccc1-c1cc(-c2cccc(C(N)=O)n2)cn(-c2ccccc2)c1=O` [Example 235, 5-[(6-Aminocarbonyl)pyridin-2-yl]-3-(2-cyanophenyl)-1-phenyl-1,2-dihydropyridin-2-one], under setting [2], the half-maximal inhibitory concentration (IC50) was found to be 4400 nM. The same measure, in the same setting: the value for `N#Cc1ccccc1-c1cc(-c2ccccn2)cn(-c2cccc(OCCN3CCCC3)c2)c1=O` [Example 241, 3-(2-Cyanophenyl)-1-[3-(pyrrolidinoethoxy)phenyl]-5-(2-pyridyl)-1,2-dihydropyridin-2-one] was 400 nM. Regarding `N#Cc1ccccc1-c1cc(-c2ccccn2)cn(-c2cccc(OC3CCNCC3)c2)c1=O` [Example 330, 3-(2-Cyanophenyl)-1-[3-(4-piperidyloxy)]phenyl-5-(2-pyridyl)-1,2-dihydropyridin-2-one], half-maximal inhibition under setting [3] (IC50) was put at 400 nM. Still for that read-out and setting: the value for `O=c1c(-c2nc3cccc4c3n2CCC4)cc(-c2ccccn2)cn1-c1ccccc1` [Example 359, 3-(5,6-Dihydro-4H-imidazo[4,5,1-i,j]quinolin-2-yl)-5-(2-pyridyl)-1-phenyl-1,2-dihydropyridin-2-one] was 2300 nM; that for `O=c1c(-c2nc3ccccc3s2)cc(-c2ccccn2)cn1-c1ccccc1` [Example 371, 3-(2-Benzothiazolyl)-5-(2-pyridyl)-1-phenyl-1,2-dihydropyridin-2-one] was 600 nM; that for `N#Cc1ccccc1-c1cc(-c2nc3ccccc3n2C2CCN(Cc3ccccc3)CC2)cn(-c2ccccc2)c1=O` [Example 365, 3-(2-Cyanophenyl)-5-[1-(1-benzylpiperidin-4-yl)benzimidazol-2-yl]-1-phenyl-1,2-dihydropyridin-2-one] was 2700 nM. Consider `Cc1ccc(-n2cc(-c3ccccn3)cc(-c3ccccc3C#N)c2=O)cc1N` [Example 222, 3-(2-Cyanophenyl)-5-(2-pyridyl)-1-(2-aminotoluen-4-yl)-1,2-dihydropyridin-2-one], for which the IC50 under setting [2] came out at 200 nM. Take `O=c1c(C2=COCCO2)cc(-c2ccccn2)cn1-c1ccccc1` [Example 269, 3-(5,6-Dihydro-1,4-dioxin-2-yl)-1-phenyl-5-(2-pyridyl)-1,2-dihydropyridin-2-one]: the half-maximal inhibitory concentration (IC50) under setting [2] worked out at 1900 nM. Consider `CS(=O)(=O)c1ccc(-n2cc(-c3ccccn3)cc(-c3ccccc3C#N)c2=O)cc1` [Example 27, 3-(2-Cyanophenyl)-5-(2-pyridyl)-1-(4-methylsulfonylphenyl)-1,2-dihydropyridin-2-one], for which, under setting [1], the IC50 came out at 50 nM. Regarding `Cc1ccc(-c2cc(-c3ccccc3C#N)c(=O)n(-c3ccccc3)c2)nc1` [Example 196, 3-(2-Cyanophenyl)-5-(5-methylpyridin-2-yl)-1-phenyl-1,2-dihydropyridin-2-one], the half-maximal inhibitory concentration (IC50) under setting [2] stood at 300 nM.

For `O=c1c(-c2ccccc2)cc(-c2ccccn2)cn1-c1cccnc1` [Example 127, 3-Phenyl-5-(2-pyridyl)-1-(3-pyridyl)-1,2-dihydropyridin-2-one], inhibition under setting [1] was half-maximal at 400 nM (IC50). The same measure, in the same setting: with `O=c1c(-c2ccccc2Cl)cc(-c2ccccn2)cn1-c1ccc(O)cc1` [Example 18, 3-(2-Chlorophenyl)-5-(2-pyridyl)-1-(4-hydroxyphenyl)-1,2-dihydropyridin-2-one] the figure was 20 nM.

`N#Cc1ccccc1-c1cc(-c2ccccn2)cn(-c2ccc(N3CCCC3)nc2)c1=O` [Example 112, 3-(2-Cyanophenyl)-5-(2-pyridyl)-1-[2-(pyrrolidin-1-yl)-pyridin-5-yl]-1,2-dihydropyridin-2-one] yielded an IC50 under setting [1] of 600 nM.
